In the assay the target is T1, USP7 (Homo sapiens, UniProt Q93009, C315A).
T1 construct: 0.25 nM His-His-USP7 (aa208-560, |C315A|) was incubated with compound; His-His (N)
T1 sequence (Q93009 208-560 C315A): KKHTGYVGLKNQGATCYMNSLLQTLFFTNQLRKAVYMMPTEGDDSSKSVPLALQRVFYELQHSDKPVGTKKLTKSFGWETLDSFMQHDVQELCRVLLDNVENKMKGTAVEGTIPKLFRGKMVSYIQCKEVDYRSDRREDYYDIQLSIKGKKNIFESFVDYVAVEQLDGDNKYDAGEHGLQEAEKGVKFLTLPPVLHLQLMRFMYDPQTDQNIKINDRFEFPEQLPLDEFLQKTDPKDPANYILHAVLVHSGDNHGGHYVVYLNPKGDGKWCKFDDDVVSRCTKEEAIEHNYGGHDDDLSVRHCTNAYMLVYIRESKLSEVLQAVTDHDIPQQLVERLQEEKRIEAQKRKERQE
Kind of assay: Inhibition of USP7 by Fluorescence Intensity (FLINT) readings, Ubiquitin-Rhodamine-110 substrate. It counts as biochemical. The note with it: 0.25 nM His-His-USP7 (aa208-560), 60 minutes at 30° C. preincubation; Ki determined from IC50 according to Cer et al. Here is the method:
USP7 activity was measured using Rhodamine-110 c-terminal labelled Ubiquitin as a substrate (UbiQ Bio), Incubation with USP7 results in the release of Rhodamine-110 leading to an increase in fluorescence which can be used in the continuous measurement of USP7 activity.
The USP7 reactions were performed in a 50 μL volume, in 384 well black solid low binding plates (Corning #3575). The reaction buffer consisted of 100 mM Bicine pH 8.0, 0.01% TritonX 100, 1 mM TCEP, and 10% DMSO.
0.25 nM His-His-USP7 (aa208-560, |C315A|) was incubated with compound (final concentration 10% DMSO) for 60 minutes at 30° C. The reaction was then initiated by the addition of 50) nM Ubiquitin-Rhodamine-110 substrate or 4 μM Ubiquitin-Rhodamine-110 substrate and the plate read every 3 minutes for 21 minutes to measure the release of Rhodamine-110. Fluorescence Intensity (FLINT) readings were measured using a Biomek Neo plate reader (Ex.485 nm, Em.535 nm).
The inhibition of increasing doses of compound was expressed as a percentage reduction in kinetic rate compared to the kinetic rates established between ‘DMSO only’ and ‘total inhibition’ controls (no USP7). The inhibitory concentrations that gave a 50% reduction in kinetic rate (IC50) were determined, from 11-point dose response curves, in XL-Fit using a 4-Parameter Logistic Model 205 (Sigmoidal Dose-Response Model). The K, values were determined from the IC50 values according to Cer et al. Nucleic Acids Res. 2009, July 1; 37 (WebServer issue): W441-W445.
Molecule `Nc1c(Oc2ccc(F)cc2)ncn(C[C@@]2(O)CCN(C(=O)[C@@H]3CCN(C(=O)C4CC(c5ccccc5)C4)C[C@H]3c3ccccc3)CC2(F)F)c1=O` (single isomer, unassigned) [Example 71] yielded an inhibition constant (Ki) of 112 nM. In the case of `Nc1c(Oc2ccc(F)cc2)ncn(C[C@@]2(O)CCN(C(=O)[C@@H]3CCN(C(=O)C4CC(c5ccccc5)C4)C[C@H]3c3ccccc3)CC2(F)F)c1=O` (single isomer, unassigned) [Example 72], the Ki came out at 235 nM.

`CC(C)(C)OC(=O)N1CC[C@@H](C(=O)N2CCC(O)(Cn3cnc(Oc4ccc(Cl)cc4)c(N)c3=O)CC2)[C@H](c2ccccc2)C1` [Example 1, tert-butyl (3R,4R)-4-[4-[[5-amino-4-(4-chlorophenoxy)-6-oxo-pyrimidin-1-yl]methyl]-4-hydroxy-piperidine-1-carbonyl]-3-phenyl-piperidine-1-carboxylate] came in with a Ki of 103 nM.

The molecule `COc1cc(Cl)cc(Oc2ncn(CC3(O)CCN(C(=O)[C@@H]4CCN(C(=O)OC(C)(C)C)C[C@H]4c4ccccc4)CC3)c(=O)c2N)c1` [Example 2, tert-butyl (3R,4R)-4-[4-[[5-amino-4-(3-chloro-5-methoxy-phenoxy)-6-oxo-pyrimidin-1-yl]methyl]-4-hydroxy-piperidine-1-carbonyl]-3-phenyl-piperidine-1-carboxylate] registered a Ki of 191 nM. For the molecule `CC(C)(C)OC(=O)N1CC[C@@H](C(=O)N2CCC(O)(Cn3cnc(Oc4ccc(Cl)c(F)c4)c(N)c3=O)CC2)[C@H](c2ccccc2)C1` [Example 3, tert-butyl (3R,4R)-4-[4-[[5-amino-4-(4-chloro-3-fluoro-phenoxy)-6-oxo-pyrimidin-1-yl]methyl]-4-hydroxy-piperidine-1-carbonyl]-3-phenyl-piperidine-1-carboxylate], the affinity, expressed as Ki, was 125 nM. `COc1cc(Oc2ncn(CC3(O)CCN(C(=O)[C@@H]4CCN(C(=O)OC(C)(C)C)C[C@H]4c4ccccc4)CC3)c(=O)c2N)ccc1F` [Example 4, tert-butyl (3R,4R)-4-[4-[[5-amino-4(4-fluoro-3-methoxy-phenoxy)-6-oxo-pyrimidin-1-yl]methyl]-4-hydroxy-piperidine-1-carbonyl]-3-phenyl-piperidine-1-carboxylate]: the Ki is 115 nM. Consider `CC(C)(C)OC(=O)N1CC[C@@H](C(=O)N2CCC(O)(Cn3cnc(Oc4cccc(C(F)(F)F)c4)c(N)c3=O)CC2)[C@H](c2ccccc2)C1` [Example 5, tert-butyl (3R,4R)-4-[4-[[5-amino-6-oxo-4-[3-(trifluoromethyl)phenoxy]pyrimidin-1-yl]methyl]-4-hydroxy-piperidine-1-carbonyl]-3-phenyl-piperidine-1-carboxylate], for which the affinity corresponds to a Ki of 299 nM.

Molecule `CC(C)(C)OC(=O)N1CC[C@@H](C(=O)N2CCC(O)(Cn3cnc(Oc4cccc(OC(F)(F)F)c4)c(N)c3=O)CC2)[C@H](c2ccccc2)C1` [Example 6] showed an inhibitory constant (Ki) of 398 nM. The molecule `CC(C)(C)OC(=O)N1CC[C@@H](C(=O)N2CCC(O)(Cn3cnc(Oc4ccccc4)c(N)c3=O)CC2)[C@H](c2ccccc2)C1` [Example 7, tert-butyl (3R,4R)-4-[4-[(5-amino-6-oxo-4-phenoxy-pyrimidin-1-yl)methyl]-4-hydroxy-piperidine-1-carbonyl]-3-phenyl-piperidine-1-carboxylate] came in with a Ki of 137 nM.

`CC(C)(C)OC(=O)N1CC[C@@H](C(=O)N2CCC(O)(Cn3cnc(Oc4ccc(F)cc4)c(N)c3=O)CC2)[C@H](c2ccccc2)C1` [Example 8, tert-butyl (3R,4R)-4-[4-[[5-amino-4-(4-fluorophenoxy)-6-oxo-pyrimidin-1-yl]methyl]-4-hydroxy-piperidine-1-carbonyl]-3-phenyl-piperidine-1-carboxylate] showed a Ki of 131 nM.

Molecule `CC(C)(C)OC(=O)N1CC[C@@H](C(=O)N2CC[C@](O)(Cn3cnc(Oc4ccccc4)c(N)c3=O)C(F)(F)C2)[C@H](c2ccccc2)C1` [Example 9, tert-butyl (3R,4R)-4-[(4S)-4-[(5-amino-6-oxo-4-phenoxy-pyrimidin-1-yl)methyl]-3,3-difluoro-4-hydroxy-piperidine-1-carbonyl]-3-phenyl-piperidine-1-carboxylate] displayed a Ki of 82.5 nM.

Usually Ki stands for the dissociation constant of the complex between target and ligand, obtained from inhibition or displacement. A high value points to weaker binding.

(Values after patent publication US20210355106A1, “NEW AMINO-PYRIMIDONYL-PIPERIDINYL DERIVATIVES, A PROCESS FOR THEIR PREPARATION AND PHARMACEUTICAL COMPOSITIONS CONTAINING THEM” (LES LABORATOIRES SERVIER, priority 2018, published 2021).)
